Results reported in patent US20150335548A1, “Oral Care Composition” (COLGATE-PALMOLIVE COMPANY, priority 2012, published 2015).
“Also recorded” adds a separate entry of the source.

Tests used:
[1] = tested on: 3-day old biofilm of the artificial mouth consortium of bacteria (A. naeslundii, S. oralis, V. parvula, L. casei, F. nucleatum) and S. mutans; assay: In vitro biofilm removal, 3-day old biofilm (protocol of Example 2); format: cell-based; conditions: 3-day old biofilm
Procedure: The 3-day old biofilm was grown on a 24 well plate using the artificial mouth consortium of bacteria (A. naeslundii, S. oralis, V. parvula, L. casei, F. nucleatum) and S. mutans. To generate the biofilm, plates were inoculated with saliva overnight to form a pellicle. The consortium of bacteria (1 mL) at an OD of ˜0.2 was added to each well. The bacterial media (Tryptic Soy Broth with 6% sucrose) was changed after 48 hours. The 3-day old biofilm was treated with the prototype formulation (500 μL) for 15 minutes on a plate shaker at 300 rpm. After incubation, the supernatant was discarded. The optical density of each well was measured and the percentage reduction in optical density relative to the control (water) was calculated to determine the effect of the prototype formulation on biofilm removal. […]
Water, untreated biofilm, commercially available mouthwash formulations with CPC (Cetyl pyridinium chloride) and a mouthwash containing five enzymes for combatting biofilm acted as […] for the experiment.

A. viscosus [2] = assay: Growth inhibition of A. viscosus (optical density over time); format: cell-based
Procedure: The effects of 1-decyl-3-methylimidazolium (DMIM) chloride on bacterial growth were investigated in vitro. DMIM chloride was incorporated into a prototype mouth rinse as illustrated in Table 17. […] The growth inhibition was measured as a change in optical density over time.
The antibacterial effects of various ionic liquids were determined according to the protocol described in Example 12.

A. viscosus [3] = assay: Short Interval Kill Test (SIKT); format: cell-based; conditions: 0.3, 0.6 and 1 wt % in the prototype mouth rinse
Text: SIKT determines the kill effect of a test article at a predetermined exposure time. […] The reaction was neutralized after 30 seconds by adding a neutralizing broth. The reaction mixture was further diluted and plated on MCA (Microbial Count Agar) plates for viable bacterial count.

dental plaque = assay: Dissolution of plaque; conditions: water-insoluble plaque vortex mixed with ionic liquid at room temperature, centrifuged at 13,000 g
Procedure: Dental plaque samples were obtained from subjects and treated with water to remove any water soluble actives. The samples were centrifuged at 13,000 g and the supernatant was collected and discarded. The remaining plaque that was insoluble in water was used to evaluate the plaque solubilizing potential of the ionic liquids.
Ionic liquids were added to the plaque sample, and the plaque sample was vortex mixed at room temperature. To ensure that the plaque was not simply suspended in the ionic liquid, the plaque containing vial with the ionic liquid was subsequently centrifuged at 13,000 g.
Plaque may form a suspension when mixed with water and that, on centrifugation, it is visible as an insoluble pellet.

| SMILES | biofilm removal, comparison in words ([1]; listed as DMIM chloride) | Percent Biofilm Removed ([1]; other ionic liquids) | growth inhibition of A. viscosus, in words (A. viscosus [2]; formulated at 0.312 wt %) | growth inhibition of A. viscosus, in words (A. viscosus [2]; formulated at 1 wt % in prototype mouth rinse of Table 17) | time to kill A. viscosus (A. viscosus [3]) | Percent Biofilm Removed ([1]; EMIM-based ionic liquids, […] in base prototype mouth rinse of Table 1) | plaque dissolution (size of plaque pellet, visual) (dental plaque) | optical density of A. viscosus culture, 0 h (A. viscosus [2]; 10% concentration in a mouth rinse, 0 h) | optical density of A. viscosus culture, 4 h (A. viscosus [2]; 10% concentration in a mouth rinse, 4 h) | optical density of A. viscosus culture, 22 h (A. viscosus [2]; 10% concentration in a mouth rinse, 22 h) | optical density of A. viscosus culture, 24 h (A. viscosus [2]; 10% concentration in a mouth rinse, 24 h) |
| --- | --- | --- | --- | --- | --- | --- | --- | --- | --- | --- | --- |
| CCCCCCCCCCn1cc[n+](C)c1.[Cl-] [DMIM Cl, 1-decyl-3-methylimidazolium chloride] | significantly more effective in removing biofilm than EMIM chloride and BMIM chloride; also recorded: most effective in removing biofilm | 57.3% | growth inhibition of A. viscosus is maintained | greater growth inhibition of A. viscosus than a 0.075 wt % CPC mouthwash | ≤ 30 s |  |  |  |  |  |  |
| CCn1cc[n+](C)c1.[Br-] [EMIM Br, 1-ethyl-3-methylimidazolium bromide] |  |  |  |  |  | 48.6% | size of the plaque pellet is reduced | 0.1482 | 0.2216 | 0.7598 | 0.8533 |
